Results published in patent publication US5814622A, “Compounds derived from boronic acid” (Adir et Compagnie, priority 1996, dated 1998).

Columns and labels:
thrombin [1] = conditions: prior knowledge; cited from earlier work
[2] = tested on: plasma from the dogs (TT); experiment: TT in dogs after oral administration; type: in vivo; conditions: dog; for Increase in TT (number of times that the initial time is increased), 1 hour / Increase in TT (number of times that the initial time is increased), 4 hours: 5 mg/kg
Procedure: (§2) Male or female dogs weighing 11-28 kg are treated orally with the products of the invention (5 mg/kg) or with the reference substance, DUP 714, at a concentration of 2.5 mg/kg. The coagulation times (TT, ACT) are determined in samples of plasma from the dogs 10 min before and 30 min, 1 hour, 2 hours, 4 hours and 6 hours after administration of the products. […] The number of platelets is also determined in each sample using a T450 counter (Coultronics).
(§3) The values show the number of times that the initial time is increased.

[3] = molecular target: plasminogen tissue activator (t-PA) (Homo sapiens, UniProt P00750); experiment: Inhibition of plasminogen tissue activator (t-PA); type: biochemical; conditions: t-PA 2 nM, substrate H-D-Ile-Pro-Arg-pNA 0.48 mM, 20° C., pH 7.4
[4] = tested on: human plasma (thrombin time); experiment: Anticoagulant activity: thrombin time (TT) in human plasma; type: biochemical; conditions: 37° C., 2 min preincubation
Procedure: (§1) Anticoagulant activity, measurement of the thrombin time and the activated cephalin time in man In order to evaluate the anticoagulant activity of the compounds of the invention, the thrombin time (TT) and the activated cephalin time (ACT) were determined in samples of human plasma. An ST4 coagulometer (Diagnostica Stago, France) was used. […] The TT is determined with the Thrombin Prest reagent and the ACT with the Automat […] reagent. The inhibitor or the solvent (10 μl) is added to the plasma (90 μl), then the mixture is incubated for 2 minutes at 37° C. 100 μl of Thrombin […]) or of Automat […]) are added while starting the chronometer. […] The activity of an antagonist is evaluated by its capacity to prolong the TT and the ACT relative to the control.

platelets = experiment: Thrombopenic activity after oral administration to dogs; type: in vivo; conditions: dog
Procedure: Male or female dogs weighing 11-28 kg are treated orally with the products of the invention (5 mg/kg) or with the reference substance, DUP 714, at a concentration of 2.5 mg/kg. […] The number of platelets is also determined in each sample using a T450 counter (Coultronics).
Under the conditions of our experiments, the number of platelets before the treatment is about 300,000 platelets/μl; the TT is about 19 seconds and the ACT is about 18 seconds.

[5] = tested on: plasma from the dogs (ACT); experiment: ACT in dogs after oral administration; type: in vivo; conditions: dog; for Increase in ACT (number of times that the initial time is increased), 1 hour / Increase in ACT (number of times that the initial time is increased), 4 hours: 5 mg/kg
Procedure: as §2, §3

human thrombin = molecular target: T1, human thrombin (Homo sapiens, UniProt P00734); experiment: Inhibition of human thrombin (fibrinogen to fibrin); type: biochemical; conditions: human thrombin 0.7 nM, purified human fibrinogen, 20° C., pH 7.4
T1 construct: human thrombin (Sigma, specific activity 3230 UNIH/mg); purchased Sigma

Plasmin = molecular target: T2, Plasmin (Homo sapiens, UniProt P00747); experiment: Inhibition of plasmin; type: biochemical; conditions: purified human plasmin 2 nM, substrate <Glu-Phe-Lys-pNA 0.05 mM, 20° C., pH 7.4
T2 construct: Products Thrombin Plasmin t-PA u-PA; purchased Stage [sic]

human urokinase (u-PA) = molecular target: T3, human urokinase (u-PA) (Homo sapiens, UniProt P00749); experiment: Inhibition of urokinase (u-PA); type: biochemical; conditions: purified human u-PA 2 nM, substrate <Glu-Gly-Arg-pNA 0.56 mM, 20° C., pH 7.4
T3 construct: purchased Sigma

[6] = tested on: human plasma (activated cephalin time); experiment: Anticoagulant activity: activated cephalin time (ACT) in human plasma; type: biochemical; conditions: 37° C., 2 min preincubation
Procedure: as §1

thrombin [7] = conditions: literature; cited from earlier work

T2 sequence (P00747 581-810 limits assumed): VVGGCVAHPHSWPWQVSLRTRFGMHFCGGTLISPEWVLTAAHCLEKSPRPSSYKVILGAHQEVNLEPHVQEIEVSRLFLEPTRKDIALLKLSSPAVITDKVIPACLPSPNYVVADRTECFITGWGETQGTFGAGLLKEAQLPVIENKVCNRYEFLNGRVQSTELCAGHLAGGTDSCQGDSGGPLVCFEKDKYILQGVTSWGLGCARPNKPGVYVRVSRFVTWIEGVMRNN
T2 sequence (P00747 97-580 partner limits assumed): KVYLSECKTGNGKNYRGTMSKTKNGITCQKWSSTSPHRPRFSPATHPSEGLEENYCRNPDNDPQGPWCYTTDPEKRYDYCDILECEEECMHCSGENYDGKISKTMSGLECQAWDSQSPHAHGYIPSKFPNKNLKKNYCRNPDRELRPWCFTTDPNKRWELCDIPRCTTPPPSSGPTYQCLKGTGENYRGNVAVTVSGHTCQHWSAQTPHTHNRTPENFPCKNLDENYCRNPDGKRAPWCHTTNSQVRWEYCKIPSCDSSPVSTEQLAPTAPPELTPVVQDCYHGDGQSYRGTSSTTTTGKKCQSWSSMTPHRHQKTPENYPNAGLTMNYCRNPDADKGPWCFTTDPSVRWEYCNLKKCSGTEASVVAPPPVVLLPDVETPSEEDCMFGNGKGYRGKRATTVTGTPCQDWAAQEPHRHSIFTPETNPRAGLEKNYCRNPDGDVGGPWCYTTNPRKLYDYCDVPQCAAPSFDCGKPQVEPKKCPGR
Sequence of plasminogen tissue activator (t-PA) (P00750 23-562 limits assumed): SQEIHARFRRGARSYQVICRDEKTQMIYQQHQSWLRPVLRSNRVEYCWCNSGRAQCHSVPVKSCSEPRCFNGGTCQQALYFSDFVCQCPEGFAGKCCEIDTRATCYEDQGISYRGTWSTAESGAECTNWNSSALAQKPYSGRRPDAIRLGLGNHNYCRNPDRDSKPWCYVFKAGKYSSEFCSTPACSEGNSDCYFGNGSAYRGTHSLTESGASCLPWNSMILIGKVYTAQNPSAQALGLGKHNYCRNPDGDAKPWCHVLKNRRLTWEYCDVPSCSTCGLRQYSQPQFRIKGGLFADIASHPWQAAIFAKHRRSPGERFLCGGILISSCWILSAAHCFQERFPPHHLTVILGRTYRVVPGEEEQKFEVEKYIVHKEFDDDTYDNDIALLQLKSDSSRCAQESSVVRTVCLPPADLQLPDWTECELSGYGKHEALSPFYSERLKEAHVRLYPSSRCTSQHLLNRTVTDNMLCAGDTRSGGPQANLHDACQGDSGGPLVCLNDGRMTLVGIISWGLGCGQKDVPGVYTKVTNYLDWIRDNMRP

hirudin
activity via the oral route, in words (thrombin [1]): not being active via the oral route

COC12CCC(c3ccc(C(=O)N[C@@H](CCCNC(=N)N)B(O)O)cc3)(CC1)CC2.Cl [Ex. 3, 1-(R)-[4-(4-Methoxybicyclo[2.2.2]oct-1-yl)benzoylamino]-4-guanidinobutylboronic acid hydrochloride]
Increase in TT (number of times that the initial time is increased), 1 hour [2]: 16 times
Increase in TT (number of times that the initial time is increased), 4 hours [2]: 12 times
IC50 [3]: 0.81 µM
TT Ctt2 (concentration which multiplies the coagulation time by 2) [4]: 0.32 µM
Thrombopenias observed 1 hour after oral administration to dogs (platelets; 5 mg/kg, 1 hour): 0%
Increase in ACT (number of times that the initial time is increased), 1 hour [5]: 19 times
Increase in ACT (number of times that the initial time is increased), 4 hours [5]: 14 times
IC50 (human thrombin): 0.0093 µM
IC50 (Plasmin): 1.96 µM
IC50 (human urokinase (u-PA)): > 33 µM
ACT Ctt2 (concentration which multiplies the coagulation time by 2) [6]: 1.25 µM

N=C(N)NCCC[C@H](NC(=O)C1(C(=O)NCCc2ccccc2)CCCC1)B(O)O.O=S(=O)(O)c1ccccc1 [Ex. 83, 1-(R)-(1-Phenethylaminocarbonylcyclopentanecarboxamido)-4-guanidinobutylboronic acid benzenesulfonate]
Increase in TT (number of times that the initial time is increased), 1 hour [2]: > 30 times
Increase in TT (number of times that the initial time is increased), 4 hours [2]: 18 times
IC50 [3]: 1.56 µM
TT Ctt2 (concentration which multiplies the coagulation time by 2) [4]: 0.13 µM
Thrombopenias observed 1 hour after oral administration to dogs (platelets; 5 mg/kg, 1 hour): 0%
Increase in ACT (number of times that the initial time is increased), 1 hour [5]: 7 times
Increase in ACT (number of times that the initial time is increased), 4 hours [5]: 4 times
IC50 (human thrombin): 0.0024 µM
IC50 (Plasmin): 6.88 µM
IC50 (human urokinase (u-PA)): 1.2 µM
ACT Ctt2 (concentration which multiplies the coagulation time by 2) [6]: 0.56 µM

hirulog-1: Direct inhibitors of thrombin, currently in clinical development [reference compound]
activity via the oral route, in words (thrombin [1]): not being active via the oral route

COC12CCC(c3cccc(C(=O)N[C@@H](CCCNC(=N)N)B(O)O)c3)(CC1)CC2.Cl [Ex. 51, 1-(R)-[3-(4-Methoxybicyclo[2.2.2]oct-1-yl)benzoylamino]-4-guanidinobutylboronic acid hydrochloride]
Increase in TT (number of times that the initial time is increased), 1 hour [2]: 22 times
Increase in TT (number of times that the initial time is increased), 4 hours [2]: 19 times
IC50 [3]: 1.54 µM
TT Ctt2 (concentration which multiplies the coagulation time by 2) [4]: 0.15 µM
Thrombopenias observed 1 hour after oral administration to dogs (platelets; 5 mg/kg, 1 hour): 0%
Increase in ACT (number of times that the initial time is increased), 1 hour [5]: 3 times
Increase in ACT (number of times that the initial time is increased), 4 hours [5]: 2 times
IC50 (human thrombin): 0.0027 µM
IC50 (Plasmin): 0.531 µM
IC50 (human urokinase (u-PA)): 5.61 µM
ACT Ctt2 (concentration which multiplies the coagulation time by 2) [6]: 0.84 µM

CC(=O)N[C@H](Cc1ccccc1)C(=O)N1CCC[C@H]1C(=O)N[C@@H](CCCNC(=N)N)B(O)O [DUP 714, Ac-(D)Phe-Pro-Arg boronic acid, reference compound]
increase of TT in animals, in words [2]: appreciably increase
thrombin inhibition, in words (thrombin [7]): thrombin inhibitor
effect on number of platelets, in words (platelets; 2.5 mg/kg): lowers the number of platelets appreciably and reversibly
Thrombopenias observed 1 hour after oral administration to dogs (platelets; 2.5 mg/kg, 1 hour): 55%
fall in number of platelets (platelets; 2.5 mg/kg, 1 hour): 55±14%
increase of ACT in animals, in words [5]: appreciably increase

N=C(N)NCCC[C@H](NC(=O)C1(C(=O)NCc2ccccc2)CCCC1)B(O)O.O=S(=O)(O)c1ccccc1 [Ex. 22, 1-(R)-(1-Benzylaminocarbonylcyclopentanecarboxamido)-4-guanidinobutylboronic acid benzenesulfonate]
Increase in TT (number of times that the initial time is increased), 1 hour [2]: 20 times
Increase in TT (number of times that the initial time is increased), 4 hours [2]: 8 times
IC50 [3]: 1.35 µM
TT Ctt2 (concentration which multiplies the coagulation time by 2) [4]: 0.30 µM
Thrombopenias observed 1 hour after oral administration to dogs (platelets; 5 mg/kg, 1 hour): 0%
Increase in ACT (number of times that the initial time is increased), 1 hour [5]: 6 times
Increase in ACT (number of times that the initial time is increased), 4 hours [5]: 2 times
IC50 (human thrombin): 0.0049 µM
IC50 (Plasmin): 8.63 µM
IC50 (human urokinase (u-PA)): 0.78 µM
ACT Ctt2 (concentration which multiplies the coagulation time by 2) [6]: 1.58 µM

COc1cccc(CCNC(=O)C2(C(=O)N[C@@H](CCCNC(=N)N)B(O)O)CCCC2)c1.O=S(=O)(O)c1ccccc1 [Ex. 94, 1-(R)-[1-(3-Methoxyphenethylaminocarbonyl)cyclopentanecarboxamido]-4-guanidinobutylboronic acid benzenesulfonate]
Increase in TT (number of times that the initial time is increased), 1 hour [2]: 17 times
Increase in TT (number of times that the initial time is increased), 4 hours [2]: 21 times
IC50 [3]: 1.41 µM
TT Ctt2 (concentration which multiplies the coagulation time by 2) [4]: 0.32 µM
Thrombopenias observed 1 hour after oral administration to dogs (platelets; 5 mg/kg, 1 hour): 0%
Increase in ACT (number of times that the initial time is increased), 1 hour [5]: 9 times
Increase in ACT (number of times that the initial time is increased), 4 hours [5]: 4 times
IC50 (human thrombin): 0.0039 µM
IC50 (Plasmin): 4.06 µM
IC50 (human urokinase (u-PA)): 1 µM
ACT Ctt2 (concentration which multiplies the coagulation time by 2) [6]: 1.77 µM

Cl.N=C(N)NCCC[C@H](NC(=O)c1cccc(C23CCC(O)(CC2)CC3)c1)B(O)O [Ex. 69, 1-(R)-[3-(4-Hydroxybicyclo[2.2.2]oct-1yl)benzoylamino]-4-guanidinobutylboronic acid hydrochloride]
Increase in TT (number of times that the initial time is increased), 1 hour [2]: 18 times
Increase in TT (number of times that the initial time is increased), 4 hours [2]: 15 times
IC50 [3]: 0.709 µM
TT Ctt2 (concentration which multiplies the coagulation time by 2) [4]: 0.17 µM
Thrombopenias observed 1 hour after oral administration to dogs (platelets; 5 mg/kg, 1 hour): 0%
Increase in ACT (number of times that the initial time is increased), 1 hour [5]: 4 times
Increase in ACT (number of times that the initial time is increased), 4 hours [5]: 3 times
IC50 (human thrombin): 0.0065 µM
IC50 (Plasmin): 0.692 µM
IC50 (human urokinase (u-PA)): > 33 µM
ACT Ctt2 (concentration which multiplies the coagulation time by 2) [6]: 0.56 µM

COc1ccc(CCNC(=O)C2(C(=O)N[C@@H](CCCNC(=N)N)B(O)O)CCCC2)cc1OC [Ex. 103, 1-(R)-[1-(3,4-Dimethoxyphenethylaminocarbonyl)cyclopentanecarboxamido]-4-guanidinoboronic acid benzensulfonate]
Increase in TT (number of times that the initial time is increased), 1 hour [2]: > 30 times
Increase in TT (number of times that the initial time is increased), 4 hours [2]: 24 times
IC50 [3]: 1.44 µM
TT Ctt2 (concentration which multiplies the coagulation time by 2) [4]: 0.29 µM
Thrombopenias observed 1 hour after oral administration to dogs (platelets; 5 mg/kg, 1 hour): 0%
Increase in ACT (number of times that the initial time is increased), 1 hour [5]: 6 times
Increase in ACT (number of times that the initial time is increased), 4 hours [5]: 4 times
IC50 (human thrombin): 0.004 µM
IC50 (Plasmin): 3.28 µM
IC50 (human urokinase (u-PA)): 1.02 µM
ACT Ctt2 (concentration which multiplies the coagulation time by 2) [6]: 1.67 µM

Cl.N=C(N)NCCC[C@H](NC(=O)c1ccc(C23CCC(O)(CC2)CC3)cc1)B(O)O [Ex. 12, 1-(R)-[4-(4-Hydroxybicyclo[2.2.2]oct-1-yl)benzoylamino]-4-guanidinobutylboronic acid hydrochloride]
Increase in TT (number of times that the initial time is increased), 1 hour [2]: 24 times
Increase in TT (number of times that the initial time is increased), 4 hours [2]: 19 times
IC50 [3]: 0.093 µM
TT Ctt2 (concentration which multiplies the coagulation time by 2) [4]: 0.18 µM
Thrombopenias observed 1 hour after oral administration to dogs (platelets; 5 mg/kg, 1 hour): 40%
Increase in ACT (number of times that the initial time is increased), 1 hour [5]: > 30 times
Increase in ACT (number of times that the initial time is increased), 4 hours [5]: > 30 times
IC50 (human thrombin): 0.0066 µM
IC50 (Plasmin): 2.1 µM
IC50 (human urokinase (u-PA)): 15.4 µM
ACT Ctt2 (concentration which multiplies the coagulation time by 2) [6]: 0.78 µM

Cl.N=C(N)NCCC[C@H](NC(=O)c1ccc(C23CCC(Cl)(CC2)CC3)cc1)B(O)O [Ex. 6, 1-(R)-[4-(4-Chlorobicyclo[2.2.2]oct-1-yl)benzoylamino]-4-guanidinobutylboronic acid hydrochloride]
Increase in TT (number of times that the initial time is increased), 1 hour [2]: 30 times
Increase in TT (number of times that the initial time is increased), 4 hours [2]: 10 times
IC50 [3]: 0.29 µM
TT Ctt2 (concentration which multiplies the coagulation time by 2) [4]: 0.75 µM
Thrombopenias observed 1 hour after oral administration to dogs (platelets; 5 mg/kg, 1 hour): 0%
Increase in ACT (number of times that the initial time is increased), 1 hour [5]: 4 times
Increase in ACT (number of times that the initial time is increased), 4 hours [5]: 2 times
IC50 (human thrombin): 0.0097 µM
IC50 (Plasmin): 2.04 µM
IC50 (human urokinase (u-PA)): 30 µM
ACT Ctt2 (concentration which multiplies the coagulation time by 2) [6]: 3.13 µM
